Experiment [1] deals with EGFR (Human), P00533 [Assessment of Proliferation in EGFR DelE746_A750 Mutant Expressing HCC827 Cells].
Experiment [2] has as its system EGFR (Human), P00533 [T790M/L858R]. The note with it: nci-h1975.

The values that follow come from the Kinase Knowledgebase extract (Sharma et al. 2016).

Some results are limits rather than exact numbers.

A word on the GI50: it is the concentration at which growth is held to half of that of the control. Higher therefore signals less potent growth inhibition.

Chain of EGFR (Human), P00533 [Assessment of Proliferation in EGFR DelE746_A750 Mutant Expressing HCC827 Cells] (P00533 whole entry, looked up, stated change not applied): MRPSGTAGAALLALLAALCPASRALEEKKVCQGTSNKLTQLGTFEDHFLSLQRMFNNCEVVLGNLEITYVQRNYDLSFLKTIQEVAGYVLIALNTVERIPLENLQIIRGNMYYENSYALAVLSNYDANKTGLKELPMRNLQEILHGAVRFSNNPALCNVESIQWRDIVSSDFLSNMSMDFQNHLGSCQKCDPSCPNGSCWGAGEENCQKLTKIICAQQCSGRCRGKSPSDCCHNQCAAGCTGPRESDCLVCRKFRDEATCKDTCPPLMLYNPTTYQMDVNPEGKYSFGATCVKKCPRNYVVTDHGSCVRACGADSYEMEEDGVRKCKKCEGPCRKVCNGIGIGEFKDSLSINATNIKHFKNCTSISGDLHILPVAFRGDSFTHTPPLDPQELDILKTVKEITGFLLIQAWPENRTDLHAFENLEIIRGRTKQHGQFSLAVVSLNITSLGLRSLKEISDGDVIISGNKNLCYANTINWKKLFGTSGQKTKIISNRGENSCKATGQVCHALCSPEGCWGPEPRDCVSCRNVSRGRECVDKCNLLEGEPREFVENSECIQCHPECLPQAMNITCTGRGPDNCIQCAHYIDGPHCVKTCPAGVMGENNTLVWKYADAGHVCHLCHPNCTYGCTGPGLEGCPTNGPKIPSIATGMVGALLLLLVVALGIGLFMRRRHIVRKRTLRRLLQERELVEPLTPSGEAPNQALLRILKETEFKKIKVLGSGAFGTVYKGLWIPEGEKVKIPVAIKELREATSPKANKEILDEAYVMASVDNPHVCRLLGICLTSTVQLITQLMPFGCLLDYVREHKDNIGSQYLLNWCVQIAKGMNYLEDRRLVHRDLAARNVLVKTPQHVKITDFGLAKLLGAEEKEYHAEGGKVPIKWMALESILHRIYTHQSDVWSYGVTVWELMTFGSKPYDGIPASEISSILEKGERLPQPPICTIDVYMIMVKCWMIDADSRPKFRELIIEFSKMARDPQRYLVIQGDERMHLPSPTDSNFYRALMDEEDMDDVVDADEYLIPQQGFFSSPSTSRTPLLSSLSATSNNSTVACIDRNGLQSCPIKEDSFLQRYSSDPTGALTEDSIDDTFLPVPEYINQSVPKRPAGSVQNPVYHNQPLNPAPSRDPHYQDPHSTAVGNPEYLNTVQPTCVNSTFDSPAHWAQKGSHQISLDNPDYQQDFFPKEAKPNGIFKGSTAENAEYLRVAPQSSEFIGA
Chain of EGFR (Human), P00533 [T790M/L858R] (P00533 whole entry T790M/L858R, looked up): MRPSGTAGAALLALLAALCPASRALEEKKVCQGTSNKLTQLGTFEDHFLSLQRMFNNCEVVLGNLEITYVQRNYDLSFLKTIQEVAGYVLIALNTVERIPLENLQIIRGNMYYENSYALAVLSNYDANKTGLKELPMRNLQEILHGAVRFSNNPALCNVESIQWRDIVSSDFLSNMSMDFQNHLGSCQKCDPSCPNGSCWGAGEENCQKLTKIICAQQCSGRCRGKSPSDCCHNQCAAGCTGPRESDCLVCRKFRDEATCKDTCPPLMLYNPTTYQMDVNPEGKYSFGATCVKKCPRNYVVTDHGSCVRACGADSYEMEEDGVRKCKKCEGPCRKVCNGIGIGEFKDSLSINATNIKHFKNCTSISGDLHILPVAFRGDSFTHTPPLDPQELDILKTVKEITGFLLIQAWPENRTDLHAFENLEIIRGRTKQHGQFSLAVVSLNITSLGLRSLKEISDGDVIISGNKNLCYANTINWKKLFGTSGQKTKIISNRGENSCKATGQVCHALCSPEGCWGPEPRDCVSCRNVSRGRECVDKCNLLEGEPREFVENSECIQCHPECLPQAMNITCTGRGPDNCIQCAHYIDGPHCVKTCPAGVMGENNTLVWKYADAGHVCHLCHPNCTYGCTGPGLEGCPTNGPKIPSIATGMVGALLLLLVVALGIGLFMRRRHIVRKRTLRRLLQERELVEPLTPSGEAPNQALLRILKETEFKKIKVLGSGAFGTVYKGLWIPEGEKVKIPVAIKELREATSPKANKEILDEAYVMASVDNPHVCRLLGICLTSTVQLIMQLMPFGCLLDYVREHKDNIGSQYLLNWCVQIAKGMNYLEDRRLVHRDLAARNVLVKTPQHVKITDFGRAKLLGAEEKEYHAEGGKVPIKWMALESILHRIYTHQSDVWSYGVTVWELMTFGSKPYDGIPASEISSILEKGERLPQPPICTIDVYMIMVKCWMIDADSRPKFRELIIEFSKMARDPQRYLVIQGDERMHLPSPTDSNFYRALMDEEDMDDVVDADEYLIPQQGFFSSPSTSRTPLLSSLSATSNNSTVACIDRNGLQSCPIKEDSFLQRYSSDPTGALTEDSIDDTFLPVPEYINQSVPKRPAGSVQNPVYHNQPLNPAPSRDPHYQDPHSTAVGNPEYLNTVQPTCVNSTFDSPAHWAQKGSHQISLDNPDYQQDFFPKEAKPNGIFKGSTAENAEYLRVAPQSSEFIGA

Turning to `C=CC(=O)Nc1cccc(Oc2nc(Nc3ccc(C(=O)N(C)C)c(Cl)c3)nc3ccsc23)c1`, the 50% growth inhibitory concentration (GI50) in experiment [1] was 50 to 100 nM; in experiment [2], not above 50 nM.

As for `C=CC(=O)Nc1cccc(Oc2nc(Nc3ccc(CCN4CCN(CC)CC4)cc3)nc3ccsc23)c1`, the GI50 in experiment [1] is 50 to 100 nM; in experiment [2] it was not above 50 nM.

Consider `C=CC(=O)Nc1cccc(Nc2nc(Nc3ccc(N4CCN(C(C)C)CC4)cc3)nc3ccsc23)c1`, for which the concentration for 50% growth inhibition (GI50) in experiment [1] and in experiment [2] was not above 50 nM each time.

For `C=CC(=O)Nc1cccc(Oc2nc(Nc3ccc(CCS(C)(=O)=O)cc3)nc3ccsc23)c1`, the GI50 is 50 to 100 nM in experiment [1] and not above 50 nM in experiment [2].

For `C=CC(=O)Nc1cccc(Oc2nc(Nc3ccc(N4CCNCC4)cc3)nc3ccsc23)c1`, the 50% growth inhibitory concentration (GI50) is not above 50 nM in experiment [1] and 100 to 1000 nM in experiment [2].

For the compound `C=CC(=O)Nc1cccc(Oc2nc(Nc3ccc(NC(=O)CCN4CCCC4)cc3)nc3ccsc23)c1`, the GI50 in experiment [1] and in experiment [2] was not above 50 nM each time.

Turning to `C=CC(=O)Nc1cccc(Oc2nc(Nc3ccc(C(=O)N4CCN(CC)CC4)cc3)nc3ccsc23)c1`, the GI50 in experiment [1] and in experiment [2] was not above 50 nM throughout.

For `C=CC(=O)Nc1cccc(Oc2nc(Nc3ccc(C=CCN4CCCCC4)cc3)nc3ccsc23)c1`, the GI50 was not above 50 nM in experiment [1] and 50 to 100 nM in experiment [2].

Take `C=CC(=O)Nc1cccc(Oc2nc(Nc3ccc(C(=O)NC4CCN(C)CC4)c(OC)c3)nc3ccsc23)c1`: the GI50 in experiment [1] was not above 50 nM; in experiment [2], 50 to 100 nM.

In the case of `C=CC(=O)Nc1cccc(Oc2nc(Nc3ccc4c(c3)OCCO4)nc3ccsc23)c1`, the GI50 is 50 to 100 nM in experiment [1] and not above 50 nM in experiment [2].

On to `C=CC(=O)Nc1cccc(Oc2nc(Nc3ccc(NCCN(C)C)c(F)c3)nc3ccsc23)c1`, for which the GI50 in experiment [1] and in experiment [2] was not above 50 nM in each case.

For `C=CC(=O)Nc1cccc(Oc2nc(Nc3ccc(NC4CCN(C(C)C)CC4)c(F)c3)nc3ccsc23)c1`, the GI50 in experiment [1] and in experiment [2] was not above 50 nM in each case.

In the case of `C=CC(=O)Nc1cccc(Oc2nc(Nc3ccc(C(=O)N4CCN(CC)CC4)c(Cl)c3)nc3ccsc23)c1`, the GI50 in experiment [1] and in experiment [2] was not above 50 nM throughout.

Take `C=CC(=O)Nc1cccc(Oc2nc(Nc3ccc(CP(=O)(OC)OC)cc3)nc3ccsc23)c1`: the 50% growth inhibitory concentration (GI50) in experiment [1] and in experiment [2] was not above 50 nM in each case.

Turning to `C=CC(=O)Nc1cccc(Oc2nc(Nc3ccc(N4CCN(CC)CC4)cn3)nc3ccsc23)c1`, the GI50 in experiment [1] and in experiment [2] was not above 50 nM each time.

For the compound `C=CC(=O)Nc1cccc(Oc2nc(Nc3ccc(N4CCN(CCOC)CC4)cc3)nc3ccsc23)c1`, the concentration for 50% growth inhibition (GI50) in experiment [1] and in experiment [2] was not above 50 nM throughout.

Regarding `C=CC(=O)Nc1cccc(Oc2nc(Nc3ccc(N4CCC(n5ccnc5)CC4)cc3)nc3ccsc23)c1`, the 50% growth inhibitory concentration (GI50) in experiment [1] and in experiment [2] was not above 50 nM in each case.

Consider `C=CC(=O)Nc1cccc(Oc2nc(Nc3ccc(C4CCCN(C)C4)cc3)nc3ccsc23)c1` (configuration not stated), for which the GI50 in experiment [1] and in experiment [2] was not above 50 nM throughout.

In the case of `C=CC(=O)Nc1cccc(Oc2nc(Nc3ccc4c(c3)CCN4C(=O)CN(C)C)nc3ccsc23)c1`, the GI50 in experiment [1] and in experiment [2] was not above 50 nM each time.

As to `C=CC(=O)Nc1cccc(Oc2nc(Nc3ccc(N4CCN(S(=O)(=O)CC)CC4)c(F)c3)nc3ccsc23)c1`, the GI50 in experiment [1] was 50 to 100 nM; in experiment [2] it was not above 50 nM.

As to `C=CC(=O)Nc1cccc(Oc2nc(Nc3ccc(N4CC[S+]([O-])CC4)cc3)nc3ccsc23)c1`, the 50% growth inhibitory concentration (GI50) in experiment [1] and in experiment [2] was not above 50 nM in each case.

Regarding `C=CC(=O)Nc1cccc(Oc2nc(Nc3ccc(NC4CCN(C)CC4)cc3)nc3ccsc23)c1`, the results for the 50% growth inhibitory concentration (GI50) in experiment [1] and in experiment [2] were not above 50 nM and 100 to 1000 nM, respectively.

In the case of `C=CC(=O)Nc1cccc(Oc2nc(Nc3ccc(N4CCC(N5CCOCC5)CC4)c(Cl)c3)nc3ccsc23)c1`, the GI50 in experiment [1] and in experiment [2] was not above 50 nM each time.

In the case of `C=CC(=O)Nc1cccc(Oc2nc(Nc3ccc(N4CCC(N5CCOCC5)CC4)c(F)c3)nc3ccsc23)c1`, the concentration for 50% growth inhibition (GI50) in experiment [1] and in experiment [2] was not above 50 nM in each case.

Consider `C=CC(=O)Nc1cccc(Oc2nc(Nc3ccc(C(=O)NC4CCN(C)CC4)cc3)nc3ccsc23)c1`, for which the 50% growth inhibitory concentration (GI50) in experiment [1] and in experiment [2] was not above 50 nM throughout.

Regarding `C=CC(=O)Nc1cccc(Oc2nc(Nc3ccc(N4CCN(C)CC4)nc3)nc3ccsc23)c1`, the GI50 in experiment [1] and in experiment [2] was not above 50 nM in each case.

In the case of `C=CC(=O)Nc1cccc(Oc2nc(Nc3ccc(OCCN4CCOCC4)c(OC)c3)nc3ccsc23)c1`, the GI50 in experiment [1] and in experiment [2] was not above 50 nM in each case.

Take `C=CC(=O)Nc1cccc(Oc2nc(Nc3ccc(C(=O)NCCN4CCCC4)cc3)nc3ccsc23)c1`: the GI50 in experiment [1] and in experiment [2] was not above 50 nM each time.

`C=CC(=O)Nc1cccc(Oc2nc(Nc3ccc(C4CCCN(C)C4)c(F)c3)nc3ccsc23)c1` (configuration not stated): the 50% growth inhibitory concentration (GI50) in experiment [1] and in experiment [2] was not above 50 nM each time.

For `C=CC(=O)Nc1cccc(Nc2nc(Nc3ccc(CCN(C)C)cc3)nc3ccsc23)c1`, the concentration for 50% growth inhibition (GI50) in experiment [1] is 50 to 100 nM; in experiment [2], not above 50 nM.

For the compound `C=CC(=O)Nc1cccc(Oc2nc(Nc3ccc(N4CCC(CN5CCCCC5)CC4)cc3)nc3ccsc23)c1`, the concentration for 50% growth inhibition (GI50) in experiment [1] and in experiment [2] was not above 50 nM each time.

With `C=CC(=O)Nc1cccc(Oc2nc(Nc3ccc(N4CCC(C(=O)N(C)C)CC4)cc3)nc3ccsc23)c1`, the concentration for 50% growth inhibition (GI50) in experiment [1] and in experiment [2] was not above 50 nM in each case.

Regarding `C=CC(=O)Nc1cccc(Oc2nc(Nc3ccc(CN4CCC4)cc3)nc3ccsc23)c1`, the GI50 in experiment [1] and in experiment [2] was not above 50 nM throughout.

Consider `C=CC(=O)Nc1cccc(Oc2nc(Nc3ccc(C(=O)NC)cc3)nc3ccsc23)c1`, for which the GI50 in experiment [1] and in experiment [2] was 50 to 100 nM each time.

Take `C=CC(=O)Nc1cccc(Oc2nc(Nc3ccc(CN4CCC(N(C)C)CC4)c(F)c3)nc3ccsc23)c1`: the results for the 50% growth inhibitory concentration (GI50) in experiment [1] and in experiment [2] were not above 50 nM and 50 to 100 nM, respectively.

For the compound `C=CC(=O)Nc1cccc(Oc2nc(Nc3ccc(N4CCC(CO)CC4)cc3)nc3ccsc23)c1`, the GI50 was not above 50 nM in experiment [1] and 50 to 100 nM in experiment [2].

`C=CC(=O)Nc1cccc(Oc2nc(Nc3ccc(N4CCN(S(C)(=O)=O)CC4)cc3)nc3ccsc23)c1`: the values for the concentration for 50% growth inhibition (GI50) in experiment [1] and in experiment [2] were 50 to 100 nM and not above 50 nM, respectively.

Turning to `C=CC(=O)Nc1cccc(Oc2nc(Nc3ccc(N4CC5CC4CN5C)cc3)nc3ccsc23)c1` (configuration not stated), the 50% growth inhibitory concentration (GI50) in experiment [1] is 50 to 100 nM; in experiment [2], not above 50 nM.

In the case of `C=CC(=O)Nc1cccc(Oc2nc(Nc3ccc(N4CCC(N(C)C)CC4)cc3)nc3ccsc23)c1`, the concentration for 50% growth inhibition (GI50) in experiment [1] and in experiment [2] was not above 50 nM in each case.

On to `C=CC(=O)Nc1cccc(Oc2nc(Nc3ccc(N4CCN(C)CC4)cc3F)nc3ccsc23)c1`, for which the GI50 in experiment [1] and in experiment [2] was 50 to 100 nM in each case.

Consider `C=CC(=O)Nc1cccc(Oc2nc(Nc3ccc(CN4CCC(N(C)C)CC4)cc3)nc3ccoc23)c1`, for which the GI50 in experiment [1] and in experiment [2] was 50 to 100 nM in each case.

As for `C=CC(=O)Nc1cccc(Oc2nc(Nc3ccc(S(=O)(=O)NC4CC4)cc3)nc3ccsc23)c1`, the GI50 in experiment [1] was 50 to 100 nM; in experiment [2], not above 50 nM.

On to `C=CC(=O)Nc1cccc(Oc2nc(Nc3ccc(NC4CCN(C)CC4)c(F)c3)nc3ccsc23)c1`, for which the GI50 in experiment [1] and in experiment [2] was not above 50 nM throughout.

For the compound `C=CC(=O)Nc1cccc(Sc2nc(Nc3ccc(C4CCN(C)CC4)c(F)c3)nc3ccsc23)c1`, the GI50 in experiment [1] and in experiment [2] was not above 50 nM in each case.

Regarding `C=CC(=O)Nc1cccc(Oc2nc(Nc3ccc(CN4CCOCC4)cc3)nc3ccsc23)c1`, the values for the 50% growth inhibitory concentration (GI50) in experiment [1] and in experiment [2] were 50 to 100 nM and not above 50 nM, respectively.

Take `C=CC(=O)Nc1cccc(Oc2nc(Nc3ccc(NC4CCN(C)CC4)c(F)c3)nc3ccoc23)c1`: the GI50 in experiment [1] and in experiment [2] was not above 50 nM in each case.

With `C=CC(=O)Nc1cccc(Oc2nc(Nc3ccc(C4CCN(C)CC4)c(Cl)c3)nc3ccsc23)c1`, the GI50 in experiment [1] and in experiment [2] was 50 to 100 nM in each case.

For the compound `C=CC(=O)Nc1cccc(Oc2nc(Nc3ccc4c(c3)CCCC(=O)N4C)nc3ccsc23)c1`, the GI50 in experiment [1] and in experiment [2] was 50 to 100 nM throughout.

On to `C=CC(=O)Nc1cccc(Oc2nc(Nc3ccc(N4CCN(CCO)CC4)cc3)nc3ccsc23)c1`, for which the GI50 in experiment [1] and in experiment [2] was not above 50 nM throughout.

With `C=CC(=O)Nc1cccc(Sc2nc(Nc3ccc(N4CCN(C)CC4)cc3)nc3ccsc23)c1`, the GI50 in experiment [1] and in experiment [2] was not above 50 nM each time.

As to `C=CC(=O)Nc1cccc(Oc2nc(Nc3ccc(N4CCSCC4)cc3)nc3ccsc23)c1`, the concentration for 50% growth inhibition (GI50) in experiment [1] is 100 to 1000 nM; in experiment [2] it was not above 50 nM.

Consider `C=CC(=O)Nc1cccc(Oc2nc(Nc3ccc(N4CCN(C(=O)N5CCOCC5)CC4)cc3)nc3ccsc23)c1`, for which the GI50 was not above 50 nM in experiment [1] and 50 to 100 nM in experiment [2].

`C=CC(=O)Nc1cccc(Oc2nc(Nc3ccc(C(=O)N(C)C)cc3)nc3ccsc23)c1`: the GI50 in experiment [1] and in experiment [2] was 50 to 100 nM throughout.

Regarding `C=CC(=O)Nc1cccc(Oc2nc(Nc3ccc(C4CCN(C)CC4)cc3)nc3ccsc23)c1`, the GI50 in experiment [1] and in experiment [2] was not above 50 nM each time.

As for `C=CC(=O)Nc1cccc(Oc2nc(Nc3ccc(N4CCN(S(=O)(=O)CC)CC4)cc3)nc3ccsc23)c1`, the GI50 in experiment [1] is not above 50 nM; in experiment [2], 50 to 100 nM.

For the compound `C=CC(=O)Nc1cccc(Oc2nc(Nc3ccc(N4CCN(CC)CC4)cc3OC)nc3ccsc23)c1`, the concentration for 50% growth inhibition (GI50) in experiment [1] and in experiment [2] was not above 50 nM throughout.

Regarding `C=CC(=O)Nc1cccc(Oc2nc(Nc3ccc(N4CCCCC4)cc3)nc3ccsc23)c1`, the values for the 50% growth inhibitory concentration (GI50) in experiment [1] and in experiment [2] were 100 to 1000 nM and not above 50 nM, respectively.

In the case of `C=CC(=O)Nc1cccc(Oc2nc(Nc3ccc(N4CCN(CCO)CC4)cn3)nc3ccsc23)c1`, the results for the GI50 in experiment [1] and in experiment [2] were not above 50 nM and 50 to 100 nM, respectively.

Take `C=CC(=O)Nc1ccc(F)c(Oc2nc(Nc3ccc(N4CCN(C)CC4)cc3)nc3ccsc23)c1`: the GI50 in experiment [1] and in experiment [2] was not above 50 nM each time.

In the case of `C=CC(=O)Nc1cccc(Nc2nc(Nc3ccc(CN4CCCCC4)cc3)nc3ccsc23)c1`, the concentration for 50% growth inhibition (GI50) in experiment [1] and in experiment [2] was not above 50 nM throughout.

For the compound `C=CC(=O)Nc1cccc(Oc2nc(Nc3ccc(NCCN(C)C)cc3)nc3ccsc23)c1`, the 50% growth inhibitory concentration (GI50) was not above 50 nM in experiment [1] and 100 to 1000 nM in experiment [2].
